Tests used:
[1] = Hepatotoxicity in C57BL/6 mouse assessed as effect on bilirubin level at 0.5 mg/kg, iv administered measured after 7 days; type: toxicity, organism-based; details: in vivo, 168 h, time 7 day
[2] = Hepatotoxicity in C57BL/6 mouse assessed as effect on bilirubin level at 1 mg/kg, iv administered measured after 7 days; type: toxicity, organism-based; details: in vivo, 168 h, time 7 day
[3] = Hepatotoxicity in C57BL/6 mouse assessed as effect on bilirubin level at 5 mg/kg, iv administered measured after 7 days; type: toxicity, organism-based; details: in vivo, 168 h, time 7 day
[4] = Hepatotoxicity in C57BL/6 mouse assessed as effect on bilirubin level at 10 mg/kg, iv administered measured after 7 days; type: toxicity, organism-based; details: in vivo, 168 h, time 7 day
[5] = Hepatotoxicity in C57BL/6 mouse assessed as effect on alanine aminotransferase level at 0.5 mg/kg, iv administered measured after 7 days; type: toxicity, organism-based; details: in vivo, 168 h, time 7 day
[6] = Hepatotoxicity in C57BL/6 mouse assessed as effect on alanine aminotransferase level at 1 mg/kg, iv administered measured after 7 days; type: toxicity, organism-based; details: in vivo, 168 h, time 7 day
[7] = Hepatotoxicity in C57BL/6 mouse assessed as effect on alanine aminotransferase level at 5 mg/kg, iv administered measured after 7 days; type: toxicity, organism-based; details: in vivo, 168 h, time 7 day
[8] = Hepatotoxicity in C57BL/6 mouse assessed as effect on alanine aminotransferase level at 10 mg/kg, iv administered measured after 7 days; type: toxicity, organism-based; details: in vivo, 168 h, time 7 day
[9] = Hepatotoxicity in C57BL/6 mouse assessed as effect on aspartate aminotransferase level at 0.5 mg/kg, iv administered measured after 7 days; type: toxicity, organism-based; details: in vivo, 168 h, time 7 day
[10] = Hepatotoxicity in C57BL/6 mouse assessed as effect on aspartate aminotransferase level at 1 mg/kg, iv administered measured after 7 days; type: toxicity, organism-based; details: in vivo, 168 h, time 7 day
[11] = Hepatotoxicity in C57BL/6 mouse assessed as effect on aspartate aminotransferase level at 5 mg/kg, iv administered measured after 7 days; type: toxicity, organism-based; details: in vivo, 168 h, time 7 day
[12] = Hepatotoxicity in C57BL/6 mouse assessed as effect on aspartate aminotransferase level at 10 mg/kg, iv administered measured after 7 days; type: toxicity, organism-based; details: in vivo, 168 h, time 7 day
[13] = Hepatotoxicity in C57BL/6 mouse assessed as effect on alkaline phosphatase level at 0.5 mg/kg, iv administered measured after 7 days; type: toxicity, organism-based; details: in vivo, 168 h, time 7 day
[14] = Hepatotoxicity in C57BL/6 mouse assessed as effect on alkaline phosphatase level at 1 mg/kg, iv administered measured after 7 days; type: toxicity, organism-based; details: in vivo, 168 h, time 7 day
[15] = Hepatotoxicity in C57BL/6 mouse assessed as effect on alkaline phosphatase level at 5 mg/kg, iv administered measured after 7 days; type: toxicity, organism-based; details: in vivo, 168 h, time 7 day
[16] = Hepatotoxicity in C57BL/6 mouse assessed as effect on alkaline phosphatase level at 10 mg/kg, iv administered measured after 7 days; type: toxicity, organism-based; details: in vivo, 168 h, time 7 day
[17] = Hepatotoxicity in C57BL/6 mouse assessed as effect on gamma glutamyl transferase level at 0.5 mg/kg, iv administered measured after 7 days; type: toxicity, organism-based; details: in vivo, 168 h, time 7 day
[18] = Hepatotoxicity in C57BL/6 mouse assessed as effect on gamma glutamyl transferase level at 1 mg/kg, iv administered measured after 7 days; type: toxicity, organism-based; details: in vivo, 168 h, time 7 day
[19] = Hepatotoxicity in C57BL/6 mouse assessed as effect on gamma glutamyl transferase level at 5 mg/kg, iv administered measured after 7 days; type: toxicity, organism-based; details: in vivo, 168 h, time 7 day
[20] = Hepatotoxicity in C57BL/6 mouse assessed as effect on gamma glutamyl transferase level at 10 mg/kg, iv administered measured after 7 days; type: toxicity, organism-based; details: in vivo, 168 h, time 7 day
[21] = Hepatotoxicity in C57BL/6 mouse assessed as effect on amylase level at 0.5 mg/kg, iv administered measured after 7 days; type: toxicity, organism-based; details: in vivo, 168 h, time 7 day
[22] = Hepatotoxicity in C57BL/6 mouse assessed as effect on amylase level at 1 mg/kg, iv administered measured after 7 days; type: toxicity, organism-based; details: in vivo, 168 h, time 7 day
[23] = Hepatotoxicity in C57BL/6 mouse assessed as effect on amylase level at 5 mg/kg, iv administered measured after 7 days; type: toxicity, organism-based; details: in vivo, 168 h, time 7 day
[24] = Hepatotoxicity in C57BL/6 mouse assessed as effect on amylase level at 10 mg/kg, iv administered measured after 7 days; type: toxicity, organism-based; details: in vivo, 168 h, time 7 day
[25] = test system: Mononuclear cell line; type: toxicity, cell-based; details: human, 72 h, 1 µM
[26] = test system: Mononuclear cell line; type: toxicity, cell-based; details: human, 72 h, 10 µM
[27] = test system: Mononuclear cell line; type: toxicity, cell-based; details: human, 72 h, 0.001 µM, dose 1 nM
[28] = test system: Mononuclear cell line; type: toxicity, cell-based; details: human, 72 h, 0.01 µM, dose 10 nM
[29] = Toxicity in C57BL/6 mouse assessed as effect on aspartate aminotransferase level in serum at 0.5 mg/kg, iv measured after 7 days; type: organism-based; details: in vivo, 168 h, time 7 day
[30] = Toxicity in C57BL/6 mouse assessed as effect on aspartate aminotransferase level in serum at 5 mg/kg, iv measured after 7 days; type: organism-based; details: in vivo, 168 h, time 7 day
[31] = AUC (0 to t) in CD rat plasma at 3 mg/kg/day, IV administered measured up to 24 hrs by LC-MS/MS analysis; type: ADME, organism-based; design: route intravenous, dose 3 mg/kg/day, time <=24
[32] = AUC (0 to infinity) in CD rat plasma at 3 mg/kg/day, IV administered measured up to 24 hrs by LC-MS/MS analysis; type: ADME, organism-based; design: route intravenous, dose 3 mg/kg/day, time <=24
[33] = Intrinsic clearance in CD rat plasma at 3 mg/kg/day, IV administered measured up to 24 hrs by LC-MS/MS analysis; type: ADME, organism-based; details: in vivo
[34] = Volume of distribution at steady state in CD rat at 3 mg/kg/day, IV administered measured up to 24 hrs by LC-MS/MS analysis; type: ADME, organism-based; details: in vivo, read-out: Vdss
[35] = MRT in CD rat plasma at 3 mg/kg/day, IV administered measured up to 24 hrs by LC-MS/MS analysis; type: ADME, organism-based
[36] = Terminal half life in CD rat at 3 mg/kg/day, IV administered measured up to 24 hrs by LC-MS/MS analysis; type: ADME, organism-based; details: in vivo, read-out: beta t1/2 (converted)
[37] = Metabolic stability in mouse microsomes assessed as intrinsic clearance; type: ADME, Microsome
[38] = Metabolic stability in rat microsomes assessed as intrinsic clearance; type: ADME, Microsome; details: read-out: CLH
[39] = Metabolic stability in human microsomes assessed as intrinsic clearance; type: ADME, Microsome; details: read-out: CLH

AUC(0-t) at 24 h [31]: 149 µM·h
AUC(0-inf) [32]: 155 µM·h
CL [33]: 0.567 mL/min/kg
Vd [34]: 0.211 L/kg
MRT [35]: 6.21 h
half-life [36]: 5.34 h
CLH [37]: 27 µL/min/mg
microsomal CLint [38]: 13 µL/min/mg
microsomal CLint [39]: 7 µL/min/mg
Compound: COc1ccc(NC(=O)c2cccc(-c3nc(NC(P(=O)(O)O)P(=O)(O)O)c4ccsc4n3)c2)cc1F
Activity [1]: Non-Toxic
Activity [2]: Non-Toxic
Activity [3]: Non-Toxic
Activity [4]: Non-Toxic
Activity [5]: Non-Toxic
Activity [6]: Non-Toxic
Activity [7]: Non-Toxic
Activity [8]: Non-Toxic
Activity [9]: Non-Toxic
Activity [10]: Non-Toxic
Activity [11]: Non-Toxic
Activity [12]: Non-Toxic
Activity [13]: Non-Toxic
Activity [14]: Non-Toxic
Activity [15]: Non-Toxic
Activity [16]: Non-Toxic
Activity [17]: Non-Toxic
Activity [18]: Non-Toxic
Activity [19]: Non-Toxic
Activity [20]: Non-Toxic
Activity [21]: Non-Toxic
Activity [22]: Non-Toxic
Activity [23]: Non-Toxic
Activity [24]: Non-Toxic
Activity [25]: 17.8%
Activity [26]: 21.3%
Activity [27]: 79.7%
Activity [28]: 77.2%
Activity [29]: Non-Toxic
Activity [30]: Non-Toxic

— ChEMBL document CHEMBL5046266, “Synthesis and Evaluation of Structurally Diverse C-2-Substituted Thienopyrimidine-Based Inhibitors of the Human Geranylgeranyl Pyrophosphate Synthase” (J Med Chem, 2022)
